Laboratory results: the CheMixHub ionic liquid set

Assay: xn = mol fraction of the nth substance listed

CC(=O)[O-].CC[n+]1ccn(C)c1 + CC(=O)[O-].[NH4+]
323.15 K, 101 kPa, x2 = 0
Conditions	electrical conductivity [S/m]	viscosity [mPa·s]
–	0.918	35.7

CCCC[N+](C)(CCCC)CCCC.[Cl-] + OC[C@H]1O[C@@](CO)(O[C@H]2O[C@H](CO)[C@@H](O)[C@H](O)[C@H]2O)[C@@H](O)[C@@H]1O + O
viscosity [mPa·s], 101.3 kPa
Conditions	293.15 K	298.15 K	303.15 K	308.15 K	313.15 K
x2 = 0, x1 = 0.0003423	1.011	0.904	0.806	0.729	0.662
x2 = 0, x1 = 0.0007203	–	–	–	–	0.672
x2 = 0, x1 = 0.001062	1.036	0.931	0.826	0.747	0.686
x2 = 0, x1 = 0.00144	–	–	–	–	0.695
x2 = 0.0003599, x1 = 0.0003421	1.027	0.917	0.817	0.737	0.668
x2 = 0.0003616, x1 = 0.00072	1.041	0.928	0.824	0.746	0.68
x2 = 0.0003631, x1 = 0.001062	1.057	0.948	0.839	0.758	0.695
x2 = 0.0003647, x1 = 0.001439	1.069	0.962	0.857	0.773	0.706
x2 = 0.0007214, x1 = 0.000342	1.052	0.937	0.83	0.747	0.677
x2 = 0.0007247, x1 = 0.0007198	1.069	0.948	0.839	0.759	0.692
x2 = 0.0007277, x1 = 0.001061	1.084	0.968	0.855	0.773	0.709
x2 = 0.000731, x1 = 0.001438	1.096	0.984	0.871	0.786	0.718
x2 = 0.001083, x1 = 0.0003419	1.071	0.952	0.845	0.761	0.689
x2 = 0.001088, x1 = 0.0007195	1.088	0.965	0.854	0.772	0.701
x2 = 0.001092, x1 = 0.001061	1.105	0.994	0.872	0.785	0.718
x2 = 0.001097, x1 = 0.001438	1.118	1.007	0.89	0.8	0.729
x2 = 0.001444, x1 = 0.0003418	1.093	0.971	0.86	0.774	0.701
x2 = 0.00145, x1 = 0.0007192	1.11	0.984	0.87	0.786	0.712
x2 = 0.001456, x1 = 0.001061	1.126	1.009	0.889	0.799	0.73
x2 = 0.001463, x1 = 0.001437	1.141	1.025	0.908	0.816	0.741
x2 = 0.001804, x1 = 0.0003416	1.115	0.987	0.875	0.788	0.713
x2 = 0.001813, x1 = 0.000719	1.134	1.001	0.885	0.798	0.726
x2 = 0.00182, x1 = 0.00106	1.153	1.025	0.905	0.814	0.744
x2 = 0.001828, x1 = 0.001437	1.166	1.042	0.925	0.829	0.76
x2 = 0.002163, x1 = 0.0003415	1.137	1.006	0.89	0.802	0.725
x2 = 0.002173, x1 = 0.0007187	1.155	1.02	0.901	0.811	0.734
x2 = 0.002176, x1 = 0.00106	1.171	1.044	0.922	0.828	0.754
x2 = 0.002192, x1 = 0.001436	1.182	1.059	0.941	0.841	0.762
x2 = 0.002532, x1 = 0.0003414	1.153	1.027	0.904	0.806	0.734
x2 = 0.002546, x1 = 0.0007185	1.176	1.038	0.916	0.822	0.754
x2 = 0.00256, x1 = 0.001436	1.203	1.075	0.957	0.859	0.775
x2 = 0.002561, x1 = 0.001059	1.187	1.058	0.934	0.842	0.766
